Test results published in BindingDB's records for doi:10.1016/j.bmc.2006.03.027 (Abbott Laboratories, 2006).

Biological target: Transient receptor potential cation channel subfamily V member 1 (Homo sapiens, UniProt Q8NER1)
Experiment: Ca2+ Influx Functional Assay for the Determination of in Vitro Activity.
Conditions: pH 7.4; 22 °C

Transient receptor potential cation channel subfamily V member 1, sequence (Q8NER1 whole entry): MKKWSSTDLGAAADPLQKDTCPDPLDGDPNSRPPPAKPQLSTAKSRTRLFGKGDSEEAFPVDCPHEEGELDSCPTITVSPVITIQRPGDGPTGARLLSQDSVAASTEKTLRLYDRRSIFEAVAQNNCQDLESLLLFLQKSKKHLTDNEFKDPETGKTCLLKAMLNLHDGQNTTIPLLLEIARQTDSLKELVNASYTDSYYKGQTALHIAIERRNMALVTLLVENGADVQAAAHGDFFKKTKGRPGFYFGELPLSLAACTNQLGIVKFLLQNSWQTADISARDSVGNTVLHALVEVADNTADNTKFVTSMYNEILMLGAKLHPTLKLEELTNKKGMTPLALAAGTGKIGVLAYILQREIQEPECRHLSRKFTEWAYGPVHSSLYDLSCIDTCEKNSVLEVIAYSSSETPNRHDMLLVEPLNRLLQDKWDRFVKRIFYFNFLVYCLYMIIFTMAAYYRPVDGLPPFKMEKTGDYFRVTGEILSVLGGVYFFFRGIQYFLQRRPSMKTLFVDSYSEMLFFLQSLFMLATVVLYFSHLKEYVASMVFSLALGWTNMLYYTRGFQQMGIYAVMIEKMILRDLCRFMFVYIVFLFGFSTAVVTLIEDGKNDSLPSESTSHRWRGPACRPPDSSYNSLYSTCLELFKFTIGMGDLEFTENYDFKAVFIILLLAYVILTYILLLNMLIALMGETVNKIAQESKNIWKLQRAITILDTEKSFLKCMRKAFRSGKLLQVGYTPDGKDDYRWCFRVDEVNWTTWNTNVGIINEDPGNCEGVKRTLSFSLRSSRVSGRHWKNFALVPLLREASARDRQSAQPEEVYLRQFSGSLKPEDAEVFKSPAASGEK

Structure (SMILES)	EC50
O=C(NCc1ccc(Cl)c(Cl)c1)Nc1cccc2[nH]ccc12 [1-[(3,4-dichlorophenyl)methyl]-3-1H-indol-4-ylurea]	220 nM
Cn1ncc2c(NC(=O)NCc3ccc(Cl)c(Cl)c3)cccc21 [1-[(3,4-dichlorophenyl)methyl]-3-(1-methyl-1H-indazol-4-yl)urea]	120 nM
O=C(NCc1cccc(F)c1)Nc1cccc2[nH]ccc12 [1-[(3-fluorophenyl)methyl]-3-1H-indol-4-ylurea]	2700 nM
O=C(NCc1ccc(Br)cc1)Nc1ccc2[nH]ncc2c1 [1-[(4-bromophenyl)methyl]-3-1H-indazol-5-ylurea]	3540 nM
O=C(NCc1ccc(Br)cc1)Nc1cccc2[nH]ccc12 [1-[(4-bromophenyl)methyl]-3-1H-indol-4-ylurea]	110 nM
O=C(NCc1ccc(Br)cc1)Nc1ccc2[nH]ccc2c1 [1-[(4-bromophenyl)methyl]-3-1H-indol-5-ylurea]	5850 nM
O=C(NCc1ccc(Br)cc1)Nc1ccc2cc[nH]c2c1 [1-[(4-bromophenyl)methyl]-3-1H-indol-6-ylurea]	3010 nM
O=C(NCc1ccc(Br)cc1)Nc1cccc2cc[nH]c12 [1-[(4-bromophenyl)methyl]-3-1H-indol-7-ylurea]	180 nM
Cc1[nH]c2cccc(NC(=O)NCc3ccc(Br)cc3)c2c1C [1-[(4-bromophenyl)methyl]-3-(2,3-dimethyl-1H-indol-4-yl)urea]	1470 nM
Cn1cc2c(NC(=O)NCc3ccc(Br)cc3)cccc2n1 [1-[(4-bromophenyl)methyl]-3-(2-methyl-2H-indazol-4-yl)urea]	1390 nM
O=C(NCc1ccc(Cl)cc1)Nc1cccc2[nH]ccc12 [1-[(4-chlorophenyl)methyl]-3-1H-indol-4-ylurea]	150 nM
O=C(NCc1ccc(F)cc1)Nc1cccc2[nH]ccc12 [1-[(4-fluorophenyl)methyl]-3-1H-indol-4-ylurea]	2710 nM
Cn1ncc2c(NC(=O)NCc3ccc(F)cc3)cccc21 [1-[(4-fluorophenyl)methyl]-3-(1-methyl-1H-indazol-4-yl)urea]	720 nM
O=C(Cc1cccc2[nH]ncc12)NCc1ccc(C(F)(F)F)cc1 [2-(1H-indazol-4-yl)-N-{[4-(trifluoromethyl)phenyl]methyl}acetamide]	10200 nM
O=C(Cc1cccc2[nH]ccc12)NCc1ccc(C(F)(F)F)cc1 [2-(1H-indol-4-yl)-N-{[4-(trifluoromethyl)phenyl]methyl}acetamide]	520 nM
O=C(NCc1ccc(Br)cc1)Nc1cccc2nc[nH]c12 [3-1H-1,3-benzodiazol-4-yl-1-[(4-bromophenyl)methyl]urea]	2470 nM
O=C(NCc1ccc(OC(F)(F)F)cc1)Nc1cccc2[nH]ccc12 [3-1H-indol-4-yl-1-{[4-(trifluoromethoxy)phenyl]methyl}urea]	80 nM
O=C(Nc1cccc2[nH]ccc12)OCc1ccc(C(F)(F)F)cc1 [[4-(trifluoromethyl)phenyl]methyl N-(1H-indol-4-yl)carbamate]	940 nM

Compounds with a lower EC50, results first:

EC50	Structure (SMILES)
21 nM	O=C(NCc1ccc(Cl)c(Cl)c1)Nc1cccc2[nH]ncc12 [1-[(3,4-dichlorophenyl)methyl]-3-1H-indazol-4-ylurea]
13 nM	O=C(NCc1ccc(Br)cc1)Nc1cccc2[nH]ncc12 [1-[(4-bromophenyl)methyl]-3-1H-indazol-4-ylurea]
76 nM	Cn1ncc2c(NC(=O)NCc3ccc(Br)cc3)cccc21 [1-[(4-bromophenyl)methyl]-3-(1-methyl-1H-indazol-4-yl)urea]
60 nM	Cn1ncc2c(NC(=O)NCc3ccc(Cl)cc3)cccc21 [1-[(4-chlorophenyl)methyl]-3-(1-methyl-1H-indazol-4-yl)urea]
40 nM	O=C(NCc1ccc(C(F)(F)F)c(F)c1)Nc1cccc2[nH]ccc12 [1-{[3-fluoro-4-(trifluoromethyl)phenyl]methyl}-3-1H-indol-4-ylurea]
70 nM	O=C(NCc1ccc(Cl)c(C(F)(F)F)c1)Nc1cccc2[nH]ccc12 [1-{[4-chloro-3-(trifluoromethyl)phenyl]methyl}-3-1H-indol-4-ylurea]
44 nM	O=C(NCc1cccc(C(F)(F)F)c1)Nc1cccc2[nH]ncc12 [3-1H-indazol-4-yl-1-{[3-(trifluoromethyl)phenyl]methyl}urea]
11 nM	O=C(NCc1ccc(OC(F)(F)F)cc1)Nc1cccc2[nH]ncc12 [3-1H-indazol-4-yl-1-{[4-(trifluoromethoxy)phenyl]methyl}urea]
9 nM	O=C(NCc1ccc(C(F)(F)F)cc1)Nc1cccc2[nH]ncc12 [3-1H-indazol-4-yl-1-{[4-(trifluoromethyl)phenyl]methyl}urea]
60 nM	O=C(NCc1ccc(C(F)(F)F)cc1)Nc1cccc2[nH]ccc12 [3-1H-indol-4-yl-1-{[4-(trifluoromethyl)phenyl]methyl}urea]
35 nM	Cn1ncc2c(NC(=O)NCc3ccc(OC(F)(F)F)cc3)cccc21 [3-(1-methyl-1H-indazol-4-yl)-1-{[4-(trifluoromethoxy)phenyl]methyl}urea]
